# Results published in article PMC11117721, “A Fast-Binding, Functionally Reversible, COX-2 Radiotracer for CNS PET Imaging” (ACS Central Science, 2024).
# Biological target: T1, COX-2 (Rattus norvegicus, UniProt P35355)
# T1 construct: endogenous COX-2 expression in naïve rats; from tissue; host or cells: brain of living naive rats
# T1 sequence (P35355 18-604): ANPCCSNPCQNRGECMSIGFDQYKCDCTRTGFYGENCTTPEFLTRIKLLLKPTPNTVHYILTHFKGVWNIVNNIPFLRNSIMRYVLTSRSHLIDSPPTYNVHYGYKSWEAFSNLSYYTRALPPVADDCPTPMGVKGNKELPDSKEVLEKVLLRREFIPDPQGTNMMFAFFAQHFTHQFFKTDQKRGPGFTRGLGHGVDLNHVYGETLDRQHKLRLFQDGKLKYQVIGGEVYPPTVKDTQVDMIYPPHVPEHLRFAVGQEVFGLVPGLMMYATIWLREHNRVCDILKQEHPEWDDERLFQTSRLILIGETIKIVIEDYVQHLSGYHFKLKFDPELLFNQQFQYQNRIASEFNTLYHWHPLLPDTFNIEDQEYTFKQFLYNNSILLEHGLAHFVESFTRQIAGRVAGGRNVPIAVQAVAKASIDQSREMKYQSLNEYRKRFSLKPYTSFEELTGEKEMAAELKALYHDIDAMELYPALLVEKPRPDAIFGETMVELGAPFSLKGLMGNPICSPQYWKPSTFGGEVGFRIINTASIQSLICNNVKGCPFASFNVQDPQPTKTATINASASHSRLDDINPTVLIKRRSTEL
# Experiment: PET neuroimaging of naïve rats
# Details: in vivo PET, result in words
# Procedure: deepest would be injected and allowed to perfuse for 15 min until all three injections were completed.
# In some experimental groups, mannitol was injected intraperitoneally (IP) or co -administered with the […]
# After the surgical procedure was completed, animals were given enough time to recover (generally 28 days post-surgery) to facilitate cellular transduction with the AAV as well as subsequent expression of COX -2 and GFP, before subsequent imaging or IHC interrogation was conducted.
# Rodent PET/MRI Acquisition
# All PET and MRI experimental procedures were acquired on a 4.7 Tesla PET-MRI scanner using a B-GA20S HP gradient coil with a PET Insert Si 198 (Bruker Biospin, Billerica, MA). Custom 3D-printed cradles were used to secure anesthetized animals in the scanner. Rat and mice experimental groups were imaged separately. For rats, one animal was placed head-prone, and the other was placed tail-prone, aligning their heads in the scanner. For rat blocking experiments celecoxib was formulated in 20% ethanol, 30% polyethylene glycol and 50% saline and diluted appropriately to administer 1 mL/kg. For mice, up to six mice were inserted, two head prone and four tail prone. ParaVision 6 (Bruker) was used to acquire MR images, and ParaVision 360 (Bruker) was used to obtain PET images. […]
smiles,measurement,value
[11CH3]S(=O)(=O)c1ccc(-c2cccc(NCc3ccoc3)n2)cc1 [[^11C]BRD1158],brain uptake,rapid and robust brain uptake
